Measured values from ChEMBL document CHEMBL5537127, “Design and synthesis of novel hederagonic acid analogs as potent anti-inflammatory compounds capable of protecting against LPS-induced acute lung injury” (Eur J Med Chem, 2024).

System: Mus musculus
Test: Antiinflammatory activity against TPA-induced mouse ear edema model assessed as reduction in ear edema at 40 mg/kg, po administered for 7 consecutive days
Format: functional
Set-up: scale not given: the % may be the effect or the level left
Settings: time 7 day

CC1(C)C(=O)/C(=C\c2cnccn2)C[C@]2(C)[C@H]3CC=C4[C@@H]5C[C@@](C)(C(=O)O)CC[C@]5(C)CC[C@@]4(C)[C@]3(C)CC[C@@H]12
Activity: 59.69%
